Reference: patent US20110158980A1, “METHODS TO TREAT AND SCREEN FOR AGENTS TO TREAT OBESITY” (TRUSTEES OF TUFTS COLLEGE, priority 2008, published 2011)

How the values were obtained:
Type in all cases: cell-based
3T3-L1 adipocytes [1] = test: Amino acid uptake or output of adipocytes (HPLC of spent medium); settings: 20 mM OXA; day 12 post-induction; positive value = uptake
Method: (§1) 3T3-L1 preadipocytes were plated onto 24-well plates and expanded in preadipocyte growth medium consisting of DMEM supplemented with calf serum (10% v/v), penicillin and streptomycin. Medium was replenished every other day. Two days post-confluence, the cells were induced to differentiate using an adipogenic cocktail (1 μg/ml insulin, 0.5 mM isobutylmethylxanthine, and 1 μM dexamethasone) added to a basal medium (DMEM with 10% fetal bovine serum and penicillin/streptomycin). After 48 hrs, the first medium was replaced with a second induction medium consisting of the basal adipocyte medium supplemented with only insulin. […] This basal medium was replenished every other day during the remainder of the culture experiments.
(§2) Metabolite measurements were performed both on cell lysates and spent medium samples as described previously (Si Y, Yoon J, Lee K. American journal of physiology 2007; 292:E1637-46). Cells were lysed in situ with an 0.1% SDS buffer and sonicated. Immediately after collection, the spent medium samples were cleaned of cell debris by a brief centrifugation step. Free glycerol, TG and free fatty acids (FFAs) were measured using enzymatic assay kits (SIGMA™). Glucose and lactate concentrations were measured using the methods of Trinder (Trinder P. J Clin Pathol 1969; 22:158-61) and Loomis (Loomis M E. J Lab Clin Med 1961; 57:966-9), respectively. Amino acids were quantified by HPLC using fluorescence-based detection following pre-column derivatization of primary or secondary amines with 6-aminoquinolyl-N-hydroxysuccinimidyl-carbamate (Cohen S A, De Antonis K M. J Chromatogr A 1994; 661:25-34). All metabolite data were normalized by the corresponding cell sample DNA content, which was determined with a fluorescence-based assay using the Hoechst dye.

3T3-L1 adipocytes [2] = test: Metabolite assays (TG, FFA, glucose, lactate, glycerol) on cell lysates and spent medium; settings: 20 mM oxamate, day 12 post-induction
Method: as §1, §2

3T3-L1 adipocytes [3] = test: Metabolic flux analysis (stoichiometric model) of adipocyte intermediary metabolism; settings: day 12 post-induction
Method: as §1
A stoichiometric model of adipocyte central carbon metabolism was constructed as described previously (Si Y, Yoon J, Lee K. American journal of physiology 2007; 292:E1637-46). The model consisted of the major pathways of central carbon metabolism (Table 1). Intracellular fluxes were estimated by solving a constrained non-linear optimization problem with stoichiometric and thermodynamic constraints (Nolan R P, Fenley A P, Lee K. Metab Eng 2006; 8:30-45).

## NC(=O)C(=O)O [oxamate]
3T3-L1 adipocytes [1]
  ALA uptake or output: 0.6 ± 0.0 mmol/g-DNA/2 days
  ASN uptake or output: −1.1 ± 0.2 mmol/g-DNA/2 days
  ASP uptake or output: 0.0 ± 0.0 mmol/g-DNA/2 days
  GLN uptake or output: −12.0 ± 1.5 mmol/g-DNA/2 days
  GLU uptake or output: 0.4 ± 0.0 mmol/g-DNA/2 days
  GLY uptake or output: −5.9 ± 0.4 mmol/g-DNA/2 days
  HIS uptake or output: −0.2 ± 0.1 mmol/g-DNA/2 days
  ILE uptake or output: 6.1 ± 0.3 mmol/g-DNA/2 days
  LEU uptake or output: 6.8 ± 0.3 mmol/g-DNA/2 days
  LYS uptake or output: −2.0 ± 0.3 mmol/g-DNA/2 days
  MET uptake or output: 0.0 ± 0.0 mmol/g-DNA/2 days
  PHE uptake or output: −0.3 ± 0.1 mmol/g-DNA/2 days
  PRO uptake or output: −0.5 ± 0.0^ mmol/g-DNA/2 days
  SER uptake or output: 4.0 ± 0.2 mmol/g-DNA/2 days
  THR uptake or output: −1.4 ± 0.3^ mmol/g-DNA/2 days
  TYR uptake or output: −0.3 ± 0.1 mmol/g-DNA/2 days
  VAL uptake or output: 3.3 ± 0.2 mmol/g-DNA/2 days
3T3-L1 adipocytes [2]
  Glycerol output raised: 1.3 fold
  Reduction of glucose uptake: 20%
3T3-L1 adipocytes [2]; Mus musculus, 3T3-L1, vs untreated control, read-out: Inhibition of lactate output
  inhibition at 20000 µM: 40%
3T3-L1 adipocytes [3]; OXA 20 mM
  Flux RXN 1 Glycolysis: Glucose + ATP = Glucose 6-P + ADP: 212.3 ± 15.3 mmol/g-DNA/2 days
  Flux RXN 2 Glycolysis: Glucose 6-P = Fructose 6-P: 205.0 ± 14.2 mmol/g-DNA/2 days
  Flux RXN 3 Glycolysis: Fructose 6-P + ATP = Glyceraldehyde 3-P + Glycerone-P + ADP: 209.9 ± 14.8 mmol/g-DNA/2 days
  Flux RXN 4 Glycolysis: Glycerone-P = Glyceraldehyde 3-P: 187.8 ± 13.9 mmol/g-DNA/2 days
  Flux RXN 5 Glycolysis: Glyceraldehyde 3-P + NAD+ + ADP + Pi = P-Enolpyruvate + ATP + H2O: 400.1 ± 28.6 mmol/g-DNA/2 days
  Flux RXN 6 Glycolysis: P-Enolpyruvate + ADP + H+ = Pyruvate + ATP: 463.5 ± 35.6 mmol/g-DNA/2 days
  Flux RXN 7 Glycolysis: Pyruvate + NADH + H+ = Lactate + NAD+: 119.2 ± 9.1 mmol/g-DNA/2 days
  Flux RXN 8 Pentose phosphate pathway: Glucose 6-P + 2 NADP+ + H2O = Ribulose 5-P + CO2 + 2 NADPH + 2 H+: 7.3 ± 4.6 mmol/g-DNA/2 days
  Flux RXN 9 Pentose phosphate pathway: 3 Ribulose 5-P = 2 Fructose 6-P + Glyceraldehyde 3-P: 2.4 ± 1.5 mmol/g-DNA/2 days
  Flux RXN 10 TCA cycle (mitochondria) (PDC): 290.4 ± 25.6 mmol/g-DNA/2 days
  Flux RXN 11 TCA cycle (mitochondria) (PC): 109.1 ± 31.7 mmol/g-DNA/2 days
  Flux RXN 12 TCA cycle (mitochondria): 185.0 ± 19.7 mmol/g-DNA/2 days
  Flux RXN 13 TCA cycle (mitochondria): 226.7 ± 26.2 mmol/g-DNA/2 days
  Flux RXN 14 TCA cycle (mitochondria): 236.0 ± 26.3 mmol/g-DNA/2 days
  Flux RXN 15 TCA cycle (mitochondria): 236.0 ± 26.3 mmol/g-DNA/2 days
  Flux RXN 16 TCA cycle (mitochondria): 181.2 ± 40.8 mmol/g-DNA/2 days
  Flux RXN 17 TCA cycle: Citrate + CoA + ATP = Acetyl-CoA + Oxaloacetate + ADP + Pi: 63.7 ± 12.9 mmol/g-DNA/2 days
  Flux RXN 18 TCA cycle: Oxaloacetate + NADH + H+ = Malate + NAD+: 0.3 ± 0.8 mmol/g-DNA/2 days
  Flux RXN 19 TCA cycle: Malate + NADP+ = Pyruvate + CO2 + NADPH: 55.2 ± 20.8 mmol/g-DNA/2 days
  Flux RXN 20 TCA cycle: Citrate + NADP+ = 2-Oxoglutarate + CO2 + NADPH + H+: 41.6 ± 9.1 mmol/g-DNA/2 days
  Flux RXN 21 TCA cycle: Oxaloacetate + ATP = P-Enolpyruvate + CO2 + ADP: 63.4 ± 12.9 mmol/g-DNA/2 days
  Flux RXN 22 Oxidative phosphorylation (NADH + 0.5 O2): 770.4 ± 108.2 mmol/g-DNA/2 days
  Flux RXN 23 Oxidative phosphorylation (FADH2 + 0.5 O2): 252.2 ± 26.4 mmol/g-DNA/2 days
  Flux RXN 24 Palmitate biosynthesis: 8.0 ± 1.6 mmol/g-DNA/2 days
  Flux RXN 25 Tripalmitoylglycerol biosynthesis: Glycerone-P + 3 Palmitate to Tripalmitoylglycerol: 22.1 ± 4.8 mmol/g-DNA/2 days
  Flux RXN 26 Tripalmitoylglycerol + 3 H2O = Glycerol + 3 Palmitate: 19.8 ± 4.4 mmol/g-DNA/2 days
  Flux RXN 27 Tripalmitoylglycerol accumulation: 2.3 ± 0.5 mmol/g-DNA/2 days
  Flux RXN 28 Metabolism of ketone bodies: 6.4 ± 0.3 mmol/g-DNA/2 days
  Flux RXN 29 Metabolism of ketone bodies: 0.0 ± 0.0 mmol/g-DNA/2 days
  Flux RXN 30 Metabolism of ketone bodies (to 3-Hydroxybutyrate): 10.8 ± 2.2 mmol/g-DNA/2 days
  Flux RXN 31 Amino acid metabolism: Pyruvate + NH4+ + NADPH = Alanine: 0.0 ± 0.0 mmol/g-DNA/2 days
  Flux RXN 32 Amino acid metabolism: Aspartate + NH4+ = Asparagine: 0.6 ± 0.1 mmol/g-DNA/2 days
  Flux RXN 33 Amino acid metabolism: Aspartate = Oxaloacetate + NH4+ + NADH: 0.0 ± 0.0 mmol/g-DNA/2 days
  Flux RXN 34 Amino acid metabolism: Cysteine = Pyruvate + NH4+ + NADH: 0.0 ± 0.0 mmol/g-DNA/2 days
  Flux RXN 35 Amino acid metabolism: Glutamate = 2-Oxoglutarate + NH4+ + NADH: 0.0 ± 0.0 mmol/g-DNA/2 days
  Flux RXN 36 Amino acid metabolism: Glutamate + NH4+ + ATP = Glutamine: 8.0 ± 1.0 mmol/g-DNA/2 days
  Flux RXN 37 Amino acid metabolism: Serine + THF = Glycine: 5.0 ± 0.3 mmol/g-DNA/2 days
  Flux RXN 38 Amino acid metabolism: Histidine + THF = Glutamate + NH4+: 4.1 ± 0.5 mmol/g-DNA/2 days
  Flux RXN 39 Amino acid metabolism: Isoleucine + 2 CoA: 6.1 ± 0.3 mmol/g-DNA/2 days
  Flux RXN 40 Amino acid metabolism: Leucine + CoA + CO2 + ATP: 6.8 ± 0.3 mmol/g-DNA/2 days
  Flux RXN 41 Amino acid metabolism: Lysine = 2-Oxoadipate + 2 NH4+ + 3 NADH: 0.0 ± 0.0 mmol/g-DNA/2 days
  Flux RXN 42 Amino acid metabolism: 2-Oxoadipate + CoA: 0.0 ± 0.0 mmol/g-DNA/2 days
  Flux RXN 43 Amino acid metabolism: Methionine + Serine + ATP + CoA + THF: 0.0 ± 0.0 mmol/g-DNA/2 days
  Flux RXN 44 Amino acid metabolism: Phenylalanine + O2 + NADH = Tyrosine: 0.0 ± 0.0 mmol/g-DNA/2 days
  Flux RXN 45 Amino acid metabolism: Glutamate + ATP + 2 NADPH = Proline: 0.0 ± 0.0 mmol/g-DNA/2 days
  Flux RXN 46 Amino acid metabolism: Serine = Pyruvate + NH4+: 0.0 ± 0.0 mmol/g-DNA/2 days
  Flux RXN 47 Amino acid metabolism: Threonine + CoA to Glycine: 0.0 ± 0.0 mmol/g-DNA/2 days
  Flux RXN 48 Amino acid metabolism: Tryptophan + 3 O2 + NADPH = 2-Oxoadipate + Alanine + CO2 + NH4+: 0.0 ± 0.0 mmol/g-DNA/2 days
  Flux RXN 49 Amino acid metabolism: Tyrosine + 2 O2: 0.0 ± 0.0 mmol/g-DNA/2 days
  Flux RXN 50 Amino acid metabolism: Valine + CoA: 3.3 ± 0.2 mmol/g-DNA/2 days
  Flux RXN 51 Plasma exchange: Palmitate: 1.0 ± 0.1 mmol/g-DNA/2 days
  Flux RXN 52 Plasma exchange: Acetoacetate: 2.4 ± 1.9 mmol/g-DNA/2 days
  Flux RXN 53 Plasma exchange: Alanine: 0.0 ± 0.0 mmol/g-DNA/2 days
  Flux RXN 54 Plasma exchange: Aspartate: 0.6 ± 0.1 mmol/g-DNA/2 days
  Flux RXN 55 Plasma exchange: Cysteine: 0.0 ± 0.0 mmol/g-DNA/2 days
  Flux RXN 56 Plasma exchange: Glutamate: 3.9 ± 0.5 mmol/g-DNA/2 days
  Flux RXN 57 Plasma exchange: Glycine: 5.0 ± 0.3 mmol/g-DNA/2 days
  Flux RXN 58 Plasma exchange: Serine: 5.0 ± 0.3 mmol/g-DNA/2 days
  Flux RXN 59 Plasma exchange: Tyrosine: 0.0 ± 0.0 mmol/g-DNA/2 days
  Flux RXN 60 Plasma exchange: O2 (calculated oxygen uptake rate): 511.3 ± 67.1 mmol/g-DNA/2 days
  Flux RXN 61 Plasma exchange: CO2: 756.9 ± 75.2 mmol/g-DNA/2 days
  Flux RXN 62 Plasma exchange: NH4+: 11.7 ± 0.5 mmol/g-DNA/2 days
  Flux RXN 63 Mitochondrial exchange: Pyruvate: 399.5 ± 40.8 mmol/g-DNA/2 days
  Flux RXN 64 Mitochondrial exchange: Malate in, Citrate out: 105.3 ± 13.9 mmol/g-DNA/2 days
  Flux RXN 65 Mitochondrial exchange: 2-Oxoglutarate in, Malate out: 41.6 ± 9.1 mmol/g-DNA/2 days
  Flux RXN 66 Mitochondrial exchange: Pi in, Malate out: 54.8 ± 20.5 mmol/g-DNA/2 days
3T3-L1 adipocytes [3]; oxamate
  Decrease of PC flux: 41%
  Decrease of citrate transport out of the mitochondria: 44%
  Decrease of de novo fatty acid synthesis: 49%
  Decrease of flux through glycolysis: 17˜26%
  Decrease of flux through the pentose phosphate pathway (PPP): 82%
  Decrease of pyruvate flux entering the TCA cycle: 21%
  Increase of lipolysis: 131%
  Increase of triglyceride synthesis: 65%
  Reduction of net triglyceride accumulation: 52%
